The subject of one experiment is CHO-K1 (CHO) cells. Kind of experiment: CHO cell cytotoxicity, ATP content assay. The experiment is classed as cell-based. The note with it: for IC50: Cricetulus griseus, CHO, 48 h, read-out: IC50 CHO. Here is the method:
Cytotoxicity in CHO-K1 (CHO) cells was also determined using the homogeneous ATP content assay with an ATPlite kit, to enable comparison with the IC50 values in the G. lamblia and E. histolytica trophozoites and provide an initial estimate of toxicity risk. Fumagillin served as a comparative control, untreated cells (including 0.5% DMSO) served as a negative control, and puromycin served as a positive control.
CHO cells (180 μl) were seeded at a density of 5,000 cells/well and incubated for 24 h at 37°C in a 5% CO2 incubator in a 96-well plate. The cells were treated with 20 μl fumagillin or fumagillol derivative solutions diluted to obtain final concentrations of 100, 30, 10, 3, 1, and 0.3 μM. Puromycin was diluted from 10 through 0.03 μM. The plates were incubated for 48 h at 37°C in a 5% CO2 incubator. One hundred microliters per well of ATPlite luminescence reagent was added to the plates, the plates were incubated at room temperature for 30 min, and the luminescence signal was measured. The assay was performed in duplicate.

Experiment [1] concerns G. lamblia GS trophozoites. Kind of experiment: Trophozoite growth inhibition, ATP content (ATPlite) assay. It counts as cell-based, Giardia lamblia. The note with it: Giardia duodenalis, 72 h, read-out: Mean [IC50 ± SE(IC50)] G. lamblia GS. On the procedure: Antigiardia assays followed by enzyme inhibition determination facilitated the selection of compounds for permeation and stability studies by in vitro methods, prior to advancing to in vivo studies. Compound potency was evaluated first by measuring G. lamblia trophozoite growth as a function of the compound concentration and calculating the IC50 values. Potency in Entamoeba histolytica trophozoites was also determined because of the early report that fumagillin cured amebiasis ([19]). The intent was to test whether the compounds would be suitable to treat gastrointestinal amebiasis rather than the invasive form of the disease, given that the designed strategy was based on reducing compound permeation across the epithelial cell barrier. […] Trophozoite growth was determined by monitoring the ATP cell content using a high-throughput homogeneous assay developed previously for G. lamblia ([57]). The ATP content serves as a marker of cell integrity since ATP degrades rapidly when cells die and the luminescence signal generated by luciferase requires ATP. The same assay was also adopted in 96-well plates for E. histolytica trophozoite growth measurement, as described in Materials and Methods. A similar E. histolytica trophozoite ATP content assay was described previously ([58]). Fumagillin, TNP-470, and a standard-of-care drug (metronidazole) served as positive controls, and cells without the drug (in the presence of 0.5% dimethyl sulfoxide [DMSO]) served as the negative control.
(§1) Trophozoites of G. lamblia isolates WB and GS were grown anaerobically in borosilicate glass screw-cap culture tubes (Fisher Scientific) at pH 7.0 in Keister’s modified TYI-S-33 medium (ATCC). The medium was supplemented with 10% heat-inactivated bovine serum (Sigma-Aldrich) and 0.05% bovine bile (Sigma-Aldrich). To attain low-oxygen-tension conditions, the tubes were filled to 85% to 90% of their total volume capacity and incubated without shaking at 37°C. Subcultures (2 × 10^5 trophozoites per tube) were made three times a week. Detachment of trophozoites for inoculation was achieved by chilling the cultures on ice for 20 min. Culturing and detachment of metronidazole-resistant G. lamblia assemblage A 713M3 and assemblage B 1279-M1 trophozoites followed the same protocol, except that the growth medium was supplemented with metronidazole, with the concentration gradually being increased to 10 μM.
The growth inhibition assays were performed in duplicate, once for each compound, for all compounds except fumagillin, which served as a positive control and whose inhibitory ability was measured multiple times as new sets of compounds were tested. All dry compounds except for fumagillin were dissolved in dimethyl sulfoxide (DMSO; Sigma) at a stock concentration of 10 mM and then diluted 1:100 in growth medium to a final compound concentration of 100 μM; fumagillin was diluted to 20 μM. Compound solution aliquots (100 μl) were prepared by 3-fold serial dilutions in growth medium containing 0.5% DMSO and distributed into 96-well assay plates. This was followed by the addition of 10 μl G. lamblia or E. histolytica culture containing 10,000 trophozoites. Fumagillin served as a positive control, and the medium-diluted DMSO alone served as a negative control. The assay plates were placed in a BD GasPak EZ container system (BD Diagnostics) to create an anaerobic growth environment. The sealed containers were incubated at 37°C for 72 h. Following incubation, 70 μl/well of the ATPlite reagent (PerkinElmer) was added to the assay plates for one-step lysis and ATP level detection. The luminescent signals of the assay plates were measured on an EnSpire 2300 plate reader (PerkinElmer). Concentration-response titration points for each compound were fitted to a 4-parameter logistic nonlinear regression model using the KaleidaGraph tool, yielding the IC50 value and standard error (SE).
(ATP-based viability assays read luminescence as a measure of living cells.)

The test system of experiment [2] is metronidazole-resistant G. lamblia 713M3. The experiment can be described thus: Trophozoite viability MLC determination. It counts as cell-based, Giardia lamblia. The note with it: metronidazole-resistant strain; 3 days treatment, 3 days proliferation. Here is the method: (§2) The inhibition of metabolism enables the organism to resume proliferation once treatment is completed. To discriminate between the lethality of the promising compounds and the induction of metabolic inactivity by the promising compounds, the minimum lethal concentration (MLC) values were determined by treating the trophozoites with the test compounds for 3 days and transferring the resulting cultures to medium lacking the compounds for 3 days of proliferation. This assay was described previously for G. lamblia ([18]) and was adapted to E. histolytica in the current study.
as §1
(§3) Compounds were prepared by 2-fold serial dilutions in growth medium containing 0.5% DMSO (diluted from a starting concentration of 1 μM to 12 concentrations for all compounds except metronidazole, fumagillol, and TNP-470, which were diluted from 100 μM), and 100 μl/well was transferred in duplicate to the 96-well culture plate. Ten microliters of G. lamblia trophozoites was plated at a density of 10,000 cells/well. The plates were incubated under anaerobic condition in a BD GasPak EZ container system (BD Diagnostics) at 37°C for 72 h and surveyed visually under a microscope to check trophozoite survival, mobility, and attachment. […] The tubes were incubated under anaerobic condition for 3 days at 37°C and checked under a microscope. The MLC value was the concentration in the tube with the lowest compound concentration without any live organism.

For experiment [3], the system named is metronidazole-resistant G. lamblia 1279-M1. Kind of experiment: Trophozoite viability MLC determination. It counts as cell-based, Giardia lamblia. The note with it: metronidazole-resistant strain; 3 days treatment, 3 days proliferation. Here is the method: as §2, §1, §3
The test system of experiment [4] is G. lamblia WB trophozoites. Kind of experiment: Trophozoite viability MLC determination. The experiment is classed as cell-based, Giardia lamblia. The note with it: 3 days treatment, 3 days proliferation without drug. On the procedure: as §2, §1, §3
Where [5] appears, read: trophozoite growth, ATP content.

SMILES strings stand for the structures. Converted amounts (≈) assume the structure as drawn. Where two headings read alike, the source gives them in different places. Where only a bound is given, the exact number is not on record here.

The term IC50 denotes the midpoint of a concentration-inhibition curve. As to `COC1C(OC(=O)NC(=O)CN2CCOCC2)CCC2(CO2)C1C1(C)OC1CC=C(C)C` (stereo not shown) [Compound 3], the concentration for half-maximal inhibition (IC50) was over 100000 nM in the experiment with CHO-K1 (CHO) cells (cytotoxicity, ATP content) and 1.5 ± 0.1 nM in experiment [1] (setting [5]). The “MLC G. lamblia 713M3” value in experiment [2] came to 3.9 nM (≈ 1.76 ng/mL). For the same compound, the “MLC G. lamblia 1279-M1” value in experiment [3] is recorded as 0.98 nM (≈ 0.443 ng/mL). Besides, in experiment [4], the “MLC G. lamblia WB” value is 0.98 nM (≈ 0.443 ng/mL).
Turning to `COC1C(OC(=O)NC(=O)CN2CCC(O)CC2)CCC2(CO2)C1C1(C)OC1CC=C(C)C` (stereo not shown) [Compound 4], the IC50 in the experiment on CHO-K1 (CHO) cells (cytotoxicity, ATP content) was over 100000 nM; in experiment [1] (setting [5]), 4.6 ± 0.4 nM. Besides, in experiment [2], the “MLC G. lamblia 713M3” value is recorded as 3.9 nM (≈ 1.82 ng/mL). For the same compound, the “MLC G. lamblia 1279-M1” value in experiment [3] is listed as 7.8 nM (≈ 3.64 ng/mL). Further, the “MLC G. lamblia WB” value in experiment [4] turned out to be 3.9 nM (≈ 1.82 ng/mL).
With `CO[C@@H]1[C@H](OC(=O)Nc2ccc(C(=O)O)cc2)CC[C@]2(CO2)[C@H]1[C@@]1(C)O[C@@H]1CC=C(C)C` [Compound 9, 4-(((((3R,4S,5S,6R)-5-methoxy-4-((2R,3R)-2-methyl-3-(3-methylbut-2-en-1-yl)oxiran-2-yl)-1-oxaspiro[2.5]octan-6-yl)oxy)carbonyl)amino)benzoic acid], the IC50 with CHO-K1 (CHO) cells is over 100000 nM; in experiment [1] (setting [5]), 3.8 ± 0.6 nM. Also, in experiment [2], the “MLC G. lamblia 713M3” value was 7.8 nM (≈ 3.47 ng/mL). For the same compound, in experiment [3], the “MLC G. lamblia 1279-M1” value stood at 7.8 nM (≈ 3.47 ng/mL). Further, the “MLC G. lamblia WB” value in experiment [4] was found to be 3.9 nM (≈ 1.74 ng/mL).
Consider `CCOC(=O)Cc1ccc(NC(=O)OC2CCC3(CO3)C(C3(C)OC3CC=C(C)C)C2OC)cc1` (stereo not shown) [Compound 11], for which the concentration for half-maximal inhibition (IC50) with CHO-K1 (CHO) cells (cytotoxicity, ATP content) was over 100000 nM; in experiment [1] (setting [5]), 3.1 ± 0.5 nM. The “MLC G. lamblia WB” value in experiment [4] was 98 nM (≈ 47.8 ng/mL).
As for `COC1C(OC(=O)N2CCC(O)CC2)CCC2(CO2)C1C1(C)OC1CC=C(C)C` (stereo not shown) [Compound 16], the half-inhibitory concentration (IC50) in the experiment with CHO-K1 (CHO) cells (cytotoxicity, ATP content) is over 100000 nM; in experiment [1] (setting [5]), 1.2 ± 0.04 nM. Moreover, in experiment [2], the “MLC G. lamblia 713M3” value worked out at 1.95 nM (≈ 0.799 ng/mL). Further, the “MLC G. lamblia 1279-M1” value in experiment [3] was found to be 7.8 nM (≈ 3.19 ng/mL). For the same compound, the “MLC G. lamblia WB” value in experiment [4] worked out at 1.95 nM (≈ 0.799 ng/mL).
Regarding `CO[C@@H]1[C@H](OC(=O)/C=C/C=C/C=C/C=C/C(=O)O)CC[C@]2(CO2)[C@H]1[C@@]1(C)O[C@@H]1CC=C(C)C` [Fumagillin, reference compound], the IC50 is over 100000 nM in the experiment on CHO-K1 (CHO) cells and 9 ± 2.2 nM in experiment [1]. For the same compound, the “MLC G. lamblia 713M3” value in experiment [2] amounted to 250 nM (≈ 115 ng/mL). For the same compound, in experiment [3], the “MLC G. lamblia 1279-M1” value was 125 nM (≈ 57.3 ng/mL). In addition, in experiment [4], the “MLC G. lamblia WB” value stood at 125 nM (≈ 57.3 ng/mL).
With `Cc1ncc([N+](=O)[O-])n1CCO` [Metronidazole, reference compound], the “selectivity, IC50 for CHO cells/IC50 for amebae” value with CHO-K1 (CHO) cells (vs E. histolytica) is over 10. Moreover, in the experiment on CHO-K1 (CHO) cells (vs G. lamblia trophozoites), the “selectivity, IC50 for CHO cells/IC50 for giardia” value is given as under 10. Moreover, in experiment [1] (setting [5]), the half-maximal inhibitory concentration (IC50) was determined as 12700 ± 1340 nM. Besides, the “MLC G. lamblia 713M3” value in experiment [2] was 100,000 nM. Besides, the “MLC G. lamblia 1279-M1” value in experiment [3] is on record as 100,000 nM. Also, the “MLC G. lamblia WB” value in experiment [4] is 7,700 nM.
